PubChem BioAssay AID256 (DTP/NCI, 2004)
Values joined by “and” are separate entries in the source; they are usually repeats but may differ in a detail not shown here. Equal values may be shown once. Inconclusive results and toxic doses are left out. Rule for the calls: active = survival T/C of 150% or more; inactive = T/C below 125% in these data. Non-standard residues stand in square brackets, D forms with d. Residues, ends and D or L forms follow the SMILES beside them. ξ: configuration not given here. *: point of attachment. ONp = O=[N+]([O-])c1ccc(O*)cc1; ξS = NC(CO)C(=O)O

System: CD2F1 mice, L1210 leukemia ip, survival T/C
Experiment: NCI In Vivo Anticancer Drug Screen. Data for tumor model L1210 Leukemia (intraperitoneal) in CD2F1 (CDF1) mice
Conditions: endpoint: mean survival time, higher = longer survival
Summary of the method: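 Activity against a transplanted murine tumor was judged by comparing the compound group with a vehicle group. The outcome in the treated animals was divided by that in the controls.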

[1] = dose: 100.0 mg/kg/injection, schedule: Q04DX003 (ip), vehicle: saline
[2] = dose: 200.0 mg/kg/injection, schedule: Q04DX003 (ip), vehicle: saline
[3] = dose: 400.0 mg/kg/injection, schedule: Q04DX003 (ip), vehicle: saline
[4] = dose: 100.0 mg/kg/injection, schedule: Q04DX002 (ip), vehicle: saline with Tween-80
[5] = dose: 100.0 mg/kg/injection, schedule: Q04DX003 (ip), vehicle: saline with Tween-80
[6] = dose: 200.0 mg/kg/injection, schedule: Q04DX003 (ip), vehicle: saline with Tween-80
[7] = dose: 400.0 mg/kg/injection, schedule: Q04DX003 (ip), vehicle: saline with Tween-80
[8] = dose: 25.0 mg/kg/injection, schedule: Q04DX003 (ip), vehicle: saline with Tween-80
[9] = dose: 50.0 mg/kg/injection, schedule: Q04DX003 (ip), vehicle: saline with Tween-80
[10] = dose: 100.0 mg/kg/injection, schedule: Q01DX009 (ip), vehicle: saline with Tween-80
[11] = dose: 200.0 mg/kg/injection, schedule: Q01DX009 (ip), vehicle: saline with Tween-80
[12] = dose: 400.0 mg/kg/injection, schedule: Q01DX009 (ip), vehicle: saline with Tween-80
[13] = dose: 100.0 mg/kg/injection, schedule: Q04DX003 (ip), vehicle: saline sonified
[14] = dose: 200.0 mg/kg/injection, schedule: Q04DX003 (ip), vehicle: saline sonified
[15] = dose: 400.0 mg/kg/injection, schedule: Q04DX003 (ip), vehicle: saline sonified
[16] = dose: 50.0 mg/kg/injection, schedule: Q01DX009 (ip), vehicle: saline with Tween-80

Measured: T/C

CCCCCCCCCCCCCCCC(=O)N(CCCN(C)C)c1ccc(N(CCCN(C)C)C(=O)CCCCCCCCCCCCCCC)cc1
inactive: dose: 1.5 mg/kg/injection, schedule: Q01DX009 (ip), vehicle: saline sonified 98 % of control | dose: 3.0 mg/kg/injection, schedule: Q01DX009 (ip), vehicle: saline sonified 101 % of control | dose: 6.0 mg/kg/injection, schedule: Q01DX009 (ip), vehicle: saline sonified 98 % of control

NC(CO)C(=O)NCC(=O)Oc1ccc([N+](=O)[O-])cc1 (centres undefined) (H-[ξS]-Gly-ONp)
inactive: dose: 75.0 mg/kg/injection, schedule: Q01DX001 (ip), vehicle: saline 100 % of control | dose: 150.0 mg/kg/injection, schedule: Q01DX001 (ip), vehicle: saline 102 % of control | dose: 300.0 mg/kg/injection, schedule: Q01DX001 (ip), vehicle: saline 96 % of control

Cc1c(Cl)c(Cl)c(Cl)c(-c2c(Cl)c(C)c(Cl)c(Cl)c2Cl)c1Cl
inactive: [1] 102 % of control | [2] 96 % of control | [3] 98 % of control

Cc1cc(S(=O)(=O)F)cc(Cl)c1SC(=O)N(C)C
inactive: [4] 91 % of control | dose: 200.0 mg/kg/injection, schedule: Q04DX002 (ip), vehicle: saline with Tween-80 95 % of control | dose: 400.0 mg/kg/injection, schedule: Q04DX002 (ip), vehicle: saline with Tween-80 91 % of control

CCCCNC(=O)NC(=O)CCl
inactive: [1] 97 % of control | [2] 101 % of control | [3] 97 % of control

NNC(=O)c1ccc(Cl)cc1Nc1cccc(Cl)c1
inactive: [5] 112 % of control | [6] 89 % of control

Cc1cc2cc3c(=O)[nH]c(=O)nc-3n(CC(O)C(O)C(O)CO)c2cc1C (centres undefined)
inactive: dose: 100.0 mg/kg/injection, schedule: Q01DX001 (ip), vehicle: saline 103 % of control | dose: 200.0 mg/kg/injection, schedule: Q01DX001 (ip), vehicle: saline 107 % of control | dose: 400.0 mg/kg/injection, schedule: Q01DX001 (ip), vehicle: saline 98 % of control

CC(=O)Nc1sc2c(c1C#N)CCCC2
inactive: [5] 93 % of control | [6] 93 % of control | [7] 101 % of control

O=C(CCl)NCCCNC(=O)CCl
inactive: [5] 105 % of control

CC(O)CN1CCN(CC(C)O)CC1.[I][Pt+2][I] (centres undefined)
inactive: [8] 102 % of control | [9] 109 % of control | [5] 95 % of control | [6] 104 % of control | [7] 100 % of control

CN(C)P1(=S)NCC(C(C)(C)C)CO1 (centres undefined)
inactive: dose: 15.63 mg/kg/injection, schedule: Q01DX001 (ip), vehicle: distilled water + Tween-80 103 % of control | dose: 31.25 mg/kg/injection, schedule: Q01DX001 (ip), vehicle: distilled water + Tween-80 103 % of control | dose: 62.5 mg/kg/injection, schedule: Q01DX001 (ip), vehicle: distilled water + Tween-80 103 % of control | dose: 125.0 mg/kg/injection, schedule: Q01DX001 (ip), vehicle: distilled water + Tween-80 97 % of control | dose: 250.0 mg/kg/injection, schedule: Q01DX001 (ip), vehicle: distilled water + Tween-80 92 % of control

Cc1ccc(S(=O)(=O)C[n+]2ccccc2N)cc1
inactive: dose: 25.0 mg/kg/injection, schedule: Q04DX002 (ip), vehicle: saline with Tween-80 102 % of control | dose: 50.0 mg/kg/injection, schedule: Q04DX002 (ip), vehicle: saline with Tween-80 95 % of control | [4] 93 % of control and 95 % of control

O/N=C1/CCCC/C1=C/c1ccccc1Cl
inactive: [10] 95 % of control | [11] 97 % of control | [12] 100 % of control

Cc1ccccc1S(=O)(=O)N(C)C
inactive: [13] 97 % of control | [14] 94 % of control | [15] 92 % of control

Oc1ccc(CCCl)cc1
inactive: [16] 91 % of control | [10] 102 % of control | [11] 102 % of control

OCC(O)C(O)C(O)C(SCc1ccccc1)SCc1ccccc1 (centres undefined)
inactive: dose: 100.0 mg/kg/injection, schedule: Q01DX001 (ip), vehicle: saline with Tween-80 97 % of control | dose: 200.0 mg/kg/injection, schedule: Q01DX001 (ip), vehicle: saline with Tween-80 93 % of control | dose: 400.0 mg/kg/injection, schedule: Q01DX001 (ip), vehicle: saline with Tween-80 89 % of control

OCC1OC(n2ncc3c(Nc4ccccc4)ncnc32)C(O)C1O (centres undefined)
inactive: dose: 6.25 mg/kg/injection, schedule: Q01DX005 (ip), vehicle: other 97 % of control | dose: 12.5 mg/kg/injection, schedule: Q01DX005 (ip), vehicle: other 91 % of control | dose: 25.0 mg/kg/injection, schedule: Q01DX005 (ip), vehicle: other 100 % of control | dose: 50.0 mg/kg/injection, schedule: Q01DX005 (ip), vehicle: other 96 % of control | dose: 100.0 mg/kg/injection, schedule: Q01DX005 (ip), vehicle: other 92 % of control | dose: 200.0 mg/kg/injection, schedule: Q01DX005 (ip), vehicle: other 96 % of control | dose: 400.0 mg/kg/injection, schedule: Q01DX005 (ip), vehicle: other 96 % of control

CCCCCCSC(=O)NC(C)=O
inactive: [10] 92 % of control | [5] 91 % of control | [11] 94 % of control | [6] 94 % of control | [12] 106 % of control | [7] 94 % of control

COc1ccc(CC2=NCCc3cc(OC)c(OC)cc32)cc1OC
inactive: dose: 25.0 mg/kg/injection, schedule: Q01DX009 (ip), vehicle: saline 95 % of control | dose: 25.0 mg/kg/injection, schedule: Q04DX003 (ip), vehicle: saline 110 % of control | dose: 50.0 mg/kg/injection, schedule: Q01DX009 (ip), vehicle: saline 101 % of control | dose: 50.0 mg/kg/injection, schedule: Q04DX003 (ip), vehicle: saline 104 % of control | [1] 96 % of control and 103 % of control

Brc1ccc2c(c1)-c1ccccc1C2Br (centres undefined)
inactive: dose: 62.5 mg/kg/injection, schedule: Q04DX003 (ip), vehicle: saline with Tween-80 107 % of control | dose: 125.0 mg/kg/injection, schedule: Q04DX003 (ip), vehicle: saline with Tween-80 109 % of control | dose: 250.0 mg/kg/injection, schedule: Q04DX003 (ip), vehicle: saline with Tween-80 98 % of control

[Cl][Cr][Cl].[NH-]CC[NH-].[NH-]CC[NH-]
inactive: dose: 100.0 mg/kg/injection, schedule: Q04DX002 (ip), vehicle: saline 95 % of control | dose: 200.0 mg/kg/injection, schedule: Q04DX002 (ip), vehicle: saline 95 % of control | dose: 400.0 mg/kg/injection, schedule: Q04DX002 (ip), vehicle: saline 88 % of control

CNC(=O)OCC1C2=C(C(=O)C(C)=C(N)C2=O)N2CC3C(N3C)C12OC (centres undefined)
inactive: dose: 75.0 mg/kg/injection, schedule: Q01DX001 (ip), vehicle: carboxymethylcellulose (CMC) 113 % of control | dose: 150.0 mg/kg/injection, schedule: Q01DX001 (ip), vehicle: carboxymethylcellulose (CMC) 113 % of control

N#CCC(=O)N/N=C/c1ccc2c(c1)CCC2
inactive: dose: 12.5 mg/kg/injection, schedule: Q01DX009 (ip), vehicle: saline with Tween-80 97 % of control | dose: 12.5 mg/kg/injection, schedule: Q04DX003 (ip), vehicle: saline with Tween-80 100 % of control | dose: 25.0 mg/kg/injection, schedule: Q01DX009 (ip), vehicle: saline with Tween-80 90 % of control | [8] 97 % of control | [16] 90 % of control | [9] 88 % of control

NCC(OC1CCCCC1)C(Cl)(Cl)Cl (centres undefined)
inactive: [5] 101 % of control | [6] 93 % of control

Cc1cccc2c1-c1c(C)cccc1CSC2
inactive: [10] 95 % of control | [13] 98 % of control | [11] 97 % of control | [14] 93 % of control | [12] 101 % of control | [15] 93 % of control
